According to paper PMC7822819, “Discovery of a new class of integrin antibodies for fibrosis” (Scientific Reports, 2021):
“And” between values parts separate entries of the source, which are not always exact repeats. Equal values may be shown once.

Experiment: Plasma total drug concentration in bleomycin model (LC-MS/MS)
Format: in vivo, mouse
Conditions: 2 h after last dose, Day 19; MK-0429 200 mpk minipump, Nintedanib 60 mpk po qd; mean ± SE
Protocol: Mice at 12 ~ 13 weeks of age were randomized to 5 groups: saline, bleomycin instillation with vehicle (osmotic minipump), bleomycin instillation with MK-0429 treatment, bleomycin instillation with vehicle oral treatment, and bleomycin instillation with Nintedanib treatment. All mice were anaesthetized with isoflurane. Bleomycin was dosed by intra-tracheal (i.t) instillation in a volume of 50 µl, at a dose of 1unit /kg body weight. After instillation, mice were kept in a heads-up position for 2–5 min before putting into cages. MK-0429 (200 mg/kg) was administered by Osmotic pump from day 5 to day 14 and Nintedanib (60 mg/kg) was administered, p.o., q.d., for 14 days. Vehicle was dosed orally at 10 am daily from the day 5 to the end of the studies and dosing volume was 10 mL/kg. For plasma PK analysis, an aliquot of 50 μL plasma was spiked into a 96-well plate, and 200 μL of acetonitrile containing internal standard were added for protein precipitation. The mixture was vortexed, centrifuged at 4000 rpm for 20 min. 50 μL of supernatant were mixed with 200 μl H2O and the final solution were injected for LC–MS/MS analysis. The methods for quantitative analysis were developed on UPLC (Waters) chromatographic system equipped with an API4000 QTrap mass spectrometer (Applied Biosystems, Concord, Ontario, Canada). […]

SMILES: COc1ccc(C(CC(=O)O)N2CCN(CCCc3ccc4c(n3)NCCC4)C2=O)cn1 (stereo not shown) [MK-0429]
- Mean plasma total drug concentration: 3701 ng/mL and 3701 ± 902 ng/mL
